What is called pKa is the pH at which an ionisable group is half protonated. Read a high pKa as a weaker acid or stronger base. In general, IC50 refers to the point on the concentration scale where inhibition reaches its midpoint. Low values mean greater potency in that assay, high ones weaker potency in that assay. A word on the Emax: it is the size of the effect at its maximum, as opposed to the concentration needed.

Some results are limits rather than exact numbers.

Series [1] is described as follows: Macroscopic pKa value of the compound. Format: physicochemical.
The target of series [2] is T1, Delta-type opioid receptor (Mus musculus, UniProt P32300). As to the kind of experiment: Compound was evaluated for […] at Opioid receptor delta 1.
Series [3] deals with T2, Delta-type opioid receptor (Rattus norvegicus, UniProt P33533). As to the kind of experiment: Compound was evaluated for the binding affinity in comparison with [3H][p-Cl-Phe4]-DPDPE (delta opioid receptor selective ligand).
For series [4], the target named is T3, Mu-type opioid receptor (Rattus norvegicus, UniProt P33535). As to the kind of experiment: Compound was evaluated for its ability to displace [3H]- CTOP (mu opioid receptor selective ligand).
Series [5] concerns the target Delta-type opioid receptor (Homo sapiens) (UniProt P41143). As to the kind of experiment: Compound was evaluated for the percentage of maximum inhibition at opioid receptor delta.
The target of series [6] is T2, Delta-type opioid receptor. As to the kind of experiment: Compound was evaluated for the binding affinity in comparison with [3H][p-Cl-Phe4]-DPDPE (opioid receptor delta selective ligand).
Series [7] concerns the target T3, Mu-type opioid receptor. As to the kind of experiment: Compound was evaluated for its ability to displace [3H]- CTOP (opioid receptor mu selective ligand).
In series [8] the target is T1, Delta-type opioid receptor. As to the kind of experiment: Compound was evaluated for its inhibitory potency against opioid receptor delta of Mouse vas deferens. Format: tissue-based.
The target of series [9] is T2, Delta-type opioid receptor. As to the kind of experiment: Compound was evaluated for the binding affinity in comparison with [3H]- DPDPE (opioid receptor delta selective ligand).
Series [10] deals with T1, Delta-type opioid receptor. As to the kind of experiment: Compound was evaluated for its inhibitory potency against Opioid receptor delta 1 of Mouse vas deferens. Format: tissue-based.

T3 sequence (P33535 whole entry): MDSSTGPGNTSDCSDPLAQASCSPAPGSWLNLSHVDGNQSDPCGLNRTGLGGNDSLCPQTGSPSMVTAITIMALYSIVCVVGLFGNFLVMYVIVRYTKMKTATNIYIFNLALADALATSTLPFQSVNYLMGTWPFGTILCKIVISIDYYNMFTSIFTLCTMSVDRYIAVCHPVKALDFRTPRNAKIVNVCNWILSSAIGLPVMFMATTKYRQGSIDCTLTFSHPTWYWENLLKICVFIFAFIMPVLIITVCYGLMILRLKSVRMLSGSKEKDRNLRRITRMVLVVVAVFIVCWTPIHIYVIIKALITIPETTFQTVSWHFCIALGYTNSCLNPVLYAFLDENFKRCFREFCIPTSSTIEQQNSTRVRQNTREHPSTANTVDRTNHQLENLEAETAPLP
T1 sequence (P32300 whole entry): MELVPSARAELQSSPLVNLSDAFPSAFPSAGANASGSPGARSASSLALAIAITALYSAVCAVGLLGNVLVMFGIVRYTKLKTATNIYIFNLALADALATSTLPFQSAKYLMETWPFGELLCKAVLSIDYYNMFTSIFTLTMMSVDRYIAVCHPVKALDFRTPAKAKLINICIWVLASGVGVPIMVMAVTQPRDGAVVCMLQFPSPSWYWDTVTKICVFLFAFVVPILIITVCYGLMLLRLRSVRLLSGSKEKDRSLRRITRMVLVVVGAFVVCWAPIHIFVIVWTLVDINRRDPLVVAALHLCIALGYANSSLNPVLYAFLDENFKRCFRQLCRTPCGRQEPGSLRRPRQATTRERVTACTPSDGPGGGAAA
T2 sequence (P33533 whole entry): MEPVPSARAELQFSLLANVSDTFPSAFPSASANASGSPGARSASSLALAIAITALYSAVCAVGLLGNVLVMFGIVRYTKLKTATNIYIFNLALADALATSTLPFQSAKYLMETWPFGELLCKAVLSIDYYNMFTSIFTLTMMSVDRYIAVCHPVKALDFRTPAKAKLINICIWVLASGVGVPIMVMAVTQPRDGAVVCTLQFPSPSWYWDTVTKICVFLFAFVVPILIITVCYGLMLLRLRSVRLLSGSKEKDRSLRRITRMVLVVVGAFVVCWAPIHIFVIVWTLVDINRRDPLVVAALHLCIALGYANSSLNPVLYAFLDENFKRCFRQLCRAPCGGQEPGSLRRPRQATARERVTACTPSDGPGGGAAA
Delta-type opioid receptor (Homo sapiens), sequence (P41143 whole entry): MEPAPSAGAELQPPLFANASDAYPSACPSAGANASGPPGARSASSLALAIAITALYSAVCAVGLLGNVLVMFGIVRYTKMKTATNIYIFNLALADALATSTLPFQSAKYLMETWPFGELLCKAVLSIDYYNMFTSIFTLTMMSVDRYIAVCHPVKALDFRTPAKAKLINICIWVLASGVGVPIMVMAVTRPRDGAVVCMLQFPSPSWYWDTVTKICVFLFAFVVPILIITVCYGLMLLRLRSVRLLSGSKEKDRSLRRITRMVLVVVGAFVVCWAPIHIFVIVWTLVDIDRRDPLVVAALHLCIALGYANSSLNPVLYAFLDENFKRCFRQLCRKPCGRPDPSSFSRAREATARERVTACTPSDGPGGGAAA

The compound `CC1(C)SSC(C)(C)[C@@H](NC(=O)[C@@H](N)Cc2ccc(O)c(I)c2)C(=O)NCC(=O)N[C@@H](Cc2ccccc2)C(=O)N[C@H]1C(=O)O` registered a pKa in [1] of 8.2.
Take `C[C@@H](c1ccc(O)cc1)[C@H](N)C(=O)N[C@H]1C(=O)NCC(=O)N[C@@H](Cc2ccccc2)C(=O)N[C@@H](C(=O)O)C(C)(C)SSC1(C)C`: the IC50 in [2] was 243 nM; in series [3] it was 440 nM; in series [4] it was 18600 nM.
With `Cc1cc(O)ccc1C[C@@H](N)C(=O)N[C@H]1C(=O)NCC(=O)N[C@@H](Cc2ccccc2)C(=O)N[C@@H](C(=O)O)C(C)(C)SSC1(C)C`, the half-inhibitory concentration (IC50) in [2] is 763 nM; in series [3], 1130 nM; in [4], 16600 nM.
On to `CC1(C)SSC(C)(C)[C@@H](NC(=O)[C@@H](N)Cc2ccc(O)c([N+](=O)[O-])c2)C(=O)NCC(=O)N[C@@H](Cc2ccccc2)C(=O)N[C@H]1C(=O)O`, for which the pKa in [1] was found to be 7.2.
For `COc1cc(C[C@H](N)C(=O)N[C@H]2C(=O)NCC(=O)N[C@@H](Cc3ccccc3)C(=O)N[C@@H](C(=O)O)C(C)(C)SSC2(C)C)ccc1O`, the pKa in series [1] was determined as 9.7.
For `CC1(C)SSC(C)(C)[C@@H](NC(=O)[C@]2(N)CCC3C=C(O)C=CC3C2)C(=O)NCC(=O)N[C@@H](Cc2ccccc2)C(=O)N[C@H]1C(=O)O` (stereo in doubt; 9) [listing 1 of 2 here], the Emax in series [5] was 79%.
For `C[C@@H](c1ccc(O)cc1)[C@@H](N)C(=O)N[C@H]1C(=O)NCC(=O)N[C@@H](Cc2ccccc2)C(=O)N[C@@H](C(=O)O)C(C)(C)SSC1(C)C`, the values for the concentration for half-maximal inhibition (IC50) in series [2], in series [3] and in series [4] were 698 nM, 20000 nM and over 40000 nM, respectively.
The like results for `C[C@H](c1ccc(O)cc1)[C@H](N)C(=O)N[C@H]1C(=O)NCC(=O)N[C@@H](Cc2ccccc2)C(=O)N[C@@H](C(=O)O)C(C)(C)SSC1(C)C` were, in that order, 14.6 nM, 84.8 nM and over 20000 nM.
In the case of `CC1(C)SSC(C)(C)[C@@H](NC(=O)[C@]2(N)CCC3C=C(O)C=CC3C2)C(=O)NCC(=O)N[C@@H](Cc2ccccc2)C(=O)N[C@H]1C(=O)O` (stereo in doubt; 9) [listing 2 of 2 here], the IC50 in series [6] worked out at 2.36 nM; in series [7] it was 1440 nM; in [8], 22 nM.
Compound `CC1(C)SSC(C)(C)[C@@H](NC(=O)[C@]2(N)CCC3C=C(O)C=CC3C2)C(=O)NCC(=O)N[C@@H](Cc2ccccc2)C(=O)N[C@H]1C(=O)O` (stereo in doubt; 8) [listing 1 of 2 here] gave an Emax in series [5] of 31%.
Take `CC1(C)SSC(C)(C)[C@@H](NC(=O)[C@]2(N)CCC3C=C(O)C=CC3C2)C(=O)NCC(=O)N[C@@H](Cc2ccccc2)C(=O)N[C@H]1C(=O)O` (stereo in doubt; 8) [listing 2 of 2 here]: the IC50 in [6] came to 24.5 nM; in series [7], 2820 nM; in series [8] it was 137 nM.
Consider `Cc1cc(O)ccc1C[C@H](N)C(=O)N[C@H]1C(=O)NCC(=O)N[C@@H](Cc2ccccc2)C(=O)N[C@@H](C(=O)O)C(C)(C)SSC1(C)C`, for which the IC50 worked out at 0.89 nM in series [9], 1170 nM in [7] and 4.52 nM in [8].
`CC1(C)SSC(C)(C)[C@@H](NC(=O)[C@@H](N)Cc2ccc(O)c(N)c2)C(=O)NCC(=O)N[C@@H](Cc2ccccc2)C(=O)N[C@H]1C(=O)O` registered a pKa in series [1] of 10.
Regarding `C[C@H](c1ccc(O)cc1)[C@@H](N)C(=O)N[C@H]1C(=O)NCC(=O)N[C@@H](Cc2ccccc2)C(=O)N[C@@H](C(=O)O)C(C)(C)SSC1(C)C`, the values for the IC50 in series [10], in [3] and in series [4] were 20700 nM, 426 nM and 22800 nM, respectively.

Source of the values: ChEMBL document CHEMBL1126091, “Ring substituted and other conformationally constrained tyrosine analogues of [D-Pen2,D-Pen5]enkephalin with delta opioid receptor selectivity” (J Med Chem, 1992).
